Data reported in patent publication US12692232B2, “Indole carboxamide compound, preparation therefor and use thereof” (NANJING RUISHUNING MEDICAL TECHNOLOGY CO., LTD., priority 2021, dated 2026).

Key:
TRPC3 protein = biological target: T1, TRPC3 protein (Homo sapiens, UniProt Q13507); assay: MST binding to TRPC3 protein; conditions: for affinity strength to TRPC6 protein higher than to TRPC3 protein: MST Kd ratio
T1 sequence (Q13507 1-921): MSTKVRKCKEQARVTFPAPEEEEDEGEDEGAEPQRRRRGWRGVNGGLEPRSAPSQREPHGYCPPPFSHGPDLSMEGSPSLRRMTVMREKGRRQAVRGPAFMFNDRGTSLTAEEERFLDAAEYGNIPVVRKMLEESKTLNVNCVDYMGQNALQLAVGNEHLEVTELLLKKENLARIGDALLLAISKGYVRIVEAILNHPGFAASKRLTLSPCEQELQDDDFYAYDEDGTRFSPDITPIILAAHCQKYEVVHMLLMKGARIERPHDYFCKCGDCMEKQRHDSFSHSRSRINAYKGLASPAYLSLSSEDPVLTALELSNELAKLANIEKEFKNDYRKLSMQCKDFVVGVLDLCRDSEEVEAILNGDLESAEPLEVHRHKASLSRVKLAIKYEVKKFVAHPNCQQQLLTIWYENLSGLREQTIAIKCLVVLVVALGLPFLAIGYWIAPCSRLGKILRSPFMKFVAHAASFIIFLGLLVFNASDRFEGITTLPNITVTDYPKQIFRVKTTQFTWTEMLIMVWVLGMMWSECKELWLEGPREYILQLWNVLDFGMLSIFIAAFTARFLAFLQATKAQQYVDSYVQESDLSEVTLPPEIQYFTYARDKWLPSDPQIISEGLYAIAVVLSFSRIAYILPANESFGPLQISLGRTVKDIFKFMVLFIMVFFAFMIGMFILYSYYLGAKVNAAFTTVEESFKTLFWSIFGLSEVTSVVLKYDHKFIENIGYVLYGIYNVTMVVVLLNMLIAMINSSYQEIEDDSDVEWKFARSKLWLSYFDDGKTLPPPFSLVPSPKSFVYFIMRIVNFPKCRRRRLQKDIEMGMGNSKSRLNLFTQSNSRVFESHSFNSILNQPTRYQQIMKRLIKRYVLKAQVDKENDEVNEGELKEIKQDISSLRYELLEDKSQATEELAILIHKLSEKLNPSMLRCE
Protocol: Preparation and labelling of protein solution: TRPC6 protein dry powder (Alomone Labs, Israel) was prepared into a protein mother solution at a concentration of 10 μM using PBS-Buffer, and 35 μL of the protein stock solution was taken to the Buffer exchange A column, and centrifuged to obtain the Tris-removed protein. 34 μL Labelling Buffer was added to the Tris-removed protein according to the instructions of the Protein Fluorescent Labelling Kit (model L001). After mixing well, 3 μL of NT-647-NHS fluorescent dye was added and thus obtained mixture was incubated for 20 minutes. The protein-dye mixture was transferred to the purification B column, 300 μL of PBS-Buffer was added, and the target protein, i.e. fluorescent labelled protein TRPC6, was collected by centrifugation (with a final concentration of about 2 μM). 180 μL of target protein was mixed with 1620 μL of PBS-Buffer, and then 9 μl of Tween-20 were added thereto. Thus the resulting mixture was mixed and then centrifuged to obtain the target protein solution.
Preparation of compound solutions: the compounds were prepared separately with DMSO to storage solutions with a concentration of […]. 10 μL of each storage solution was placed in a […] EP tube, 90 μL of PBS was added thereto and the resulting mixture was thoroughly mixed to prepare 100 μL of working solution at a concentration of 1 μM for later use. Ligand gradient dilutions were made for a total of 16 concentrations, and 10 μL of 10% DMSO-Buffer was added to each of the 15 gradients except gradient 1, followed by the addition of 10 μL of ligand working solution to gradients 1 and 2, respectively. The liquid in tube 2 was mixed and then 10 μL therein was taken into tube 3, and dilution was carried out in this manner until tube 16. Tube 16 was mixed and 10 μL therein was taken and discarded, and the remainder was kept for later use.
Detection and analysis: 10 μL of protein solution was added to the 16 compound gradient dilutions respectively and mixed, and the resultant mixtures were transferred to capillary tubes sequentially to start detection on machine. After loading the data, the MST analysis model and Kd Model were selected to obtain the fitting curve and dissociation constant (Kd).
The binding ability of the compounds of the present invention (as exemplified by the compounds 1-1 and 2-1 obtained in Examples 1 and 3) for other TRPC proteins (e.g., TRPC1, TRPC3, TRPC4, TRPC5, and TRPC7) was determined using the microscale thermophoresis (MST) method. The method was as follows:
The affinity of the compounds of the present invention with TRPC1, TRPC3, TRPC4, TRPC5 and TRPC7 proteins, respectively, was determined by the same method as in Example 5.

[1] = tested on: lipopolysaccharide (LPS)-induced mouse model of sepsis; assay: LPS-induced mouse model of sepsis, survival analysis; assay type: in vivo; conditions: for average survival time: LPS 40 mg/kg i.p., LPS group 15.4±2.9; for time after which the mice began to die: LPS 40 mg/kg i.p. 30 minutes later, LPS group about 12 hours
Protocol: A lipopolysaccharide (LPS)-induced mouse model of sepsis was used to determine the preventive and therapeutic effect of the compounds of the present invention (as exemplified by compounds 1-1 and 2-1 obtained in Examples 1 and 3) against sepsis. The method was as follows:
Experimental animals: 60 male C57BL/6J mice aged 6-8 weeks. The experimental animals were housed in an environment with room temperature of 25±2° C., 12 hours dark/12 hours light, and fed with conventional feed.
Survival analysis experiment: the mice were randomly divided into 6 groups of 10 mice each, namely, i) a solvent control group: each animal was administered 0.9% saline; ii) a sepsis model group (LPS group): each animal was injected intraperitoneally with LPS at a dose of 40 mg/kg; iii) a treatment group of medium-dose compound 1-1 (LPS+25 mg/kg of compound 1-1 obtained in Example 1): each animal was administered compound 1-1 by gavage at a dose of 25 mg/kg, followed by intraperitoneal injection of LPS at a dose of 40 mg/kg 30 minutes later; iv) a treatment group of high-dose compound 1-1 (LPS+50 mg/kg of compound 1-1 obtained in Example 1): each animal was administered compound 1-1 by gavage at a dose of 50 mg/kg, followed by intraperitoneal injection of LPS at a dose of 40 mg/kg 30 minutes later; v) a treatment group of high-dose compound 2-1 (LPS+50 mg/kg compound 2-1 obtained in Example 2): each animal was administered compound 2-1 by gavage at a dose of 50 mg/kg, followed by intraperitoneal injection of LPS at a dose of 40 mg/kg 30 minutes later; vi) a treatment group of medium-dose indole analogue 3-[(1-methyl-1H-indole-2-carbonyl)amino]propionic acid disclosed in CN2019107285315 (LPS+25 mg/kg of indole analogue 3-[(1-methyl-1H-indole-2-carbonyl)amino]propionic acid disclosed in CN2019107285315). The survival of the mice in each group was monitored, the time of death of the mice was recorded, and the average survival time of the animals in each group was calculated.

## Cn1c(C(=O)NCCC(=O)O)cc2ccccc21 [3-[(1-methyl-1H-indole-2-carbonyl)amino]propionic acid, reference compound]
TRPC3 protein
  affinity strength to TRPC6 protein higher than to TRPC3 protein: 27 fold
[1]; 25 mg/kg
  average survival time: 19.8 ± 3.1 h

## CC(=O)OCCCNC(=O)c1c(C=O)c2ccccc2n1C [compound 1-1, propyl 3-[(3-formyl-1-methyl-1H-indole-2-carbonyl)amino]acetate]
TRPC3 protein
  affinity strength to TRPC6 protein higher than to TRPC3 protein: 81 fold
[1]; 25 mg/kg
  time after which the mice began to die: 20 h
  average survival time: 24.8 ± 3.9 h
[1]; 50 mg/kg
  time after which the mice began to die: 28 h
  average survival time: 26.4 ± 4.3 h

## Cn1c(C(=O)NCCCOC(=O)c2ccccc2)c(C=O)c2ccccc21 [compound 2-1]
TRPC3 protein; MST
  Kd: 1.4 µM
TRPC3 protein
  affinity strength to TRPC6 protein higher than to TRPC3 protein: 51 fold
[1]; 50 mg/kg
  time after which the mice began to die: 22 h
  average survival time: 24.2 ± 4.9 h
